Measured values from PMC5699210 (Bioorganic & medicinal chemistry letters, 2011).
Entries after “also recorded” stand apart in the source; their conditions may differ.

System: rats with inflammation of the dura
Test: Rat model of migraine pain
Assay type: in vivo
Details: oral 30 mg/kg

## CN1CCC[C@@H]1CCn1ccc2ccc(NC(=N)c3cccs3)cc21.Cl.Cl [(R)-8]
15 min prior to the inflammatory soup, 30 mg/kg
  tactile hyperesthesia (allodynia) of the hindpaw: attenuated the development of allodynia between 2 and 6 h post-dose; also recorded: attenuates the tactile hyperesthesia (allodynia); also recorded: reduce tactile hyperesthesia (allodynia)
post-dose
  time of maximum effect on allodynia: 4 h
